Measured values as given in patent US20020137929A1, “1 - (3-heterocyclylphenyl) isothiourea, -isourea, -guanidine and -amidine herbicidal agents” (Intellectual Property Department, BASF Aktiengesellschaft, priority 1998, published 2002).

Experiments:
SETVI (Foxtail, Green) = test: Postemergence herbicidal evaluation; assay type: in vivo, Setaria viridis
In short: (§1)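 Visual 0–9 rating versus control (stand, vigor, malformation, size, chlorosis, overall appearance), taken four to five weeks post-spray. Two-week-old seedlings received roughly 0.0156–0.500 kg/ha active in acetone/water (50/50) with 0.5% TWEEN 20 via nozzle at 40 psi.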

CASOB (Sicklepod) = test: Preemergence herbicidal evaluation; assay type: in vivo, Cassia obtusifolia; conditions: rated 4-5 weeks after treatment
In short: (§2)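 In this greenhouse assay, monocot and dicot seeds are planted in soil and treated prior to emergence with an aqueous acetone spray (about 0.0156-0.500 kg/ha). Plants are assessed visually against control on a 0-9 scale after 4-5 weeks.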

ORYSAT (Rice, Tebonnet) = test: Postemergence herbicidal evaluation; assay type: in vivo, Oryza sativa, (L.) Tebonnet
In short: as §1

[1] = tested on: GLXMAW (Soybean, Williams); test: Preemergence herbicidal evaluation; assay type: in vivo, Glycine max, (L.) Merr. cv Williams; conditions: rated 4-5 weeks after treatment
In short: as §2

[2] = tested on: CHEAL (Lambsquarters, Common); test: Preemergence herbicidal evaluation; assay type: in vivo, Chenopodium album; conditions: rated 4-5 weeks after treatment
In short: as §2

[3] = tested on: IPOHE (Morningglory, Ivyleaf); test: Postemergence herbicidal evaluation; assay type: in vivo, Ipomoea hederacea
In short: as §1

ECHCG (Barnyardgrass) [4] = test: Preemergence herbicidal evaluation; assay type: in vivo, Echinochloa crus-galli; conditions: rated 4-5 weeks after treatment
In short: as §2

ZEAMX (Corn, Field) [5] = test: Postemergence herbicidal evaluation; assay type: in vivo, Zea mays
In short: as §1

[6] = tested on: CHEAL (Lambsquarters, Common); test: Postemergence herbicidal evaluation; assay type: in vivo, Chenopodium album
In short: as §1

ZEAMX (Corn, Field) [7] = test: Preemergence herbicidal evaluation; assay type: in vivo, Zea mays; conditions: rated 4-5 weeks after treatment
In short: as §2

ECHCG (Barnyardgrass) [8] = test: Postemergence herbicidal evaluation; assay type: in vivo, Echinochloa crus-galli
In short: as §1

[9] = tested on: TRZAWR (Wheat, Winter, cv Riband); test: Preemergence herbicidal evaluation; assay type: in vivo, Triticum aestivum; conditions: rated 4-5 weeks after treatment
In short: as §2

[10] = tested on: IPOHE (Morningglory, Ivyleaf); test: Preemergence herbicidal evaluation; assay type: in vivo, Ipomoea hederacea; conditions: rated 4-5 weeks after treatment
In short: as §2

ABUTH (Velvetleaf) [11] = test: Postemergence herbicidal evaluation; assay type: in vivo, Abutilon theophrasti
In short: as §1

ABUTH (Velvetleaf) [12] = test: Preemergence herbicidal evaluation; assay type: in vivo, Abutilon theophrasti; conditions: rated 4-5 weeks after treatment
In short: as §2

[13] = postemergence, rate 0.0625 kg/ha

CCCN1C(=O)CSC1=Nc1cc(-n2c(=O)cc(C(F)(F)F)n(C)c2=O)c(F)cc1Cl [Compound 171, 3-{4-Chloro-2-fluoro-5-[(4-oxo-3-propyl-2-thiazolidinylidene)amino]phenyl}-1-methyl-6-(trifluoromethyl)-2,4 (1H, 3H)-pyrimidinedione]
3.5: Postemergence herbicidal rating ORYSAT (ORYSAT (Rice, Tebonnet); Rate 0.0156 kg/ha)
7.0: Postemergence herbicidal rating SETVI (SETVI (Foxtail, Green); Rate 0.0156 kg/ha) | Postemergence herbicidal rating SETVI (SETVI (Foxtail, Green); Rate 0.0313 kg/ha) | Preemergence herbicidal rating GLXMAW ([1]; 0.1250 kg/ha) | herbicidal rating ZEAMX (ZEAMX (Corn, Field) [5]; [13]) | Postemergence herbicidal rating CHEAL ([6]; Rate 0.0156 kg/ha)
6.5: Postemergence herbicidal rating ZEAMX (ZEAMX (Corn, Field) [5]; Rate 0.0313 kg/ha)
1.0: Preemergence herbicidal rating GLXMAW ([1]; 0.0156 kg/ha)
8.0: Preemergence herbicidal rating GLXMAW ([1]; 0.2500 kg/ha) | Preemergence herbicidal rating ECHCG (ECHCG (Barnyardgrass) [4]; 0.0625 kg/ha) | Preemergence herbicidal rating ZEAMX (ZEAMX (Corn, Field) [7]; 0.0625 kg/ha) | Preemergence herbicidal rating ZEAMX (ZEAMX (Corn, Field) [7]; 0.1250 kg/ha) | Preemergence herbicidal rating TRZAWR ([9]; 0.2500 kg/ha)
2.0: Preemergence herbicidal rating CASOB (CASOB (Sicklepod); 0.0625 kg/ha) | Preemergence herbicidal rating GLXMAW ([1]; 0.0313 kg/ha) | Preemergence herbicidal rating ZEAMX (ZEAMX (Corn, Field) [7]; 0.0156 kg/ha) | Preemergence herbicidal rating TRZAWR ([9]; 0.0156 kg/ha) | Preemergence herbicidal rating IPOHE ([10]; 0.0156 kg/ha)
4.0: Preemergence herbicidal rating CASOB (CASOB (Sicklepod); 0.0156 kg/ha) | Preemergence herbicidal rating CASOB (CASOB (Sicklepod); 0.1250 kg/ha) | Postemergence herbicidal rating ORYSAT (ORYSAT (Rice, Tebonnet); Rate 0.0313 kg/ha) | Preemergence herbicidal rating ECHCG (ECHCG (Barnyardgrass) [4]; 0.0313 kg/ha) | Postemergence herbicidal rating ECHCG (ECHCG (Barnyardgrass) [8]; Rate 0.0156 kg/ha) | Postemergence herbicidal rating ECHCG (ECHCG (Barnyardgrass) [8]; Rate 0.0313 kg/ha)
6.0: Preemergence herbicidal rating GLXMAW ([1]; 0.0625 kg/ha) | Preemergence herbicidal rating ZEAMX (ZEAMX (Corn, Field) [7]; 0.0313 kg/ha) | Preemergence herbicidal rating TRZAWR ([9]; 0.0625 kg/ha) | Preemergence herbicidal rating TRZAWR ([9]; 0.1250 kg/ha)
0.0: Preemergence herbicidal rating ECHCG (ECHCG (Barnyardgrass) [4]; 0.0156 kg/ha)
5.0: Preemergence herbicidal rating CASOB (CASOB (Sicklepod); 0.0313 kg/ha) | herbicidal rating ORYSAT (ORYSAT (Rice, Tebonnet); [13]) | Postemergence herbicidal rating ZEAMX (ZEAMX (Corn, Field) [5]; Rate 0.0156 kg/ha)
9.0: herbicidal rating SETVI (SETVI (Foxtail, Green); [13]) | Preemergence herbicidal rating CASOB (CASOB (Sicklepod); 0.2500 kg/ha) | Preemergence herbicidal rating CHEAL ([2]; 0.0156 kg/ha) | Preemergence herbicidal rating CHEAL ([2]; 0.0313 kg/ha) | Preemergence herbicidal rating CHEAL ([2]; 0.0625 kg/ha) | Preemergence herbicidal rating CHEAL ([2]; 0.1250 kg/ha) | Preemergence herbicidal rating CHEAL ([2]; 0.2500 kg/ha) | Postemergence herbicidal rating IPOHE ([3]; Rate 0.0156 kg/ha) | Postemergence herbicidal rating IPOHE ([3]; Rate 0.0313 kg/ha) | herbicidal rating IPOHE [3, 13] | Preemergence herbicidal rating ECHCG (ECHCG (Barnyardgrass) [4]; 0.1250 kg/ha) | Preemergence herbicidal rating ECHCG (ECHCG (Barnyardgrass) [4]; 0.2500 kg/ha) | Postemergence herbicidal rating CHEAL ([6]; Rate 0.0313 kg/ha) | herbicidal rating CHEAL [6, 13] | Preemergence herbicidal rating ZEAMX (ZEAMX (Corn, Field) [7]; 0.2500 kg/ha) | Preemergence herbicidal rating IPOHE ([10]; 0.0625 kg/ha) | Preemergence herbicidal rating IPOHE ([10]; 0.1250 kg/ha) | Preemergence herbicidal rating IPOHE ([10]; 0.2500 kg/ha) | Postemergence herbicidal rating ABUTH (ABUTH (Velvetleaf) [11]; Rate 0.0156 kg/ha) | Postemergence herbicidal rating ABUTH (ABUTH (Velvetleaf) [11]; Rate 0.0313 kg/ha) | herbicidal rating ABUTH (ABUTH (Velvetleaf) [11]; [13]) | Preemergence herbicidal rating ABUTH (ABUTH (Velvetleaf) [12]; 0.0156 kg/ha) | Preemergence herbicidal rating ABUTH (ABUTH (Velvetleaf) [12]; 0.0313 kg/ha) | Preemergence herbicidal rating ABUTH (ABUTH (Velvetleaf) [12]; 0.0625 kg/ha) | Preemergence herbicidal rating ABUTH (ABUTH (Velvetleaf) [12]; 0.1250 kg/ha) | Preemergence herbicidal rating ABUTH (ABUTH (Velvetleaf) [12]; 0.2500 kg/ha)
3.0: herbicidal rating ECHCG (ECHCG (Barnyardgrass) [8]; [13]) | Preemergence herbicidal rating TRZAWR ([9]; 0.0313 kg/ha) | Preemergence herbicidal rating IPOHE ([10]; 0.0313 kg/ha)
